Legend:
GABAA receptor = experiment: Rat hippocampal brain slice electrophysiology assay; format: cell-based; conditions: in the presence of EC20 of muscimol (2 μM); CA1 population spike; read-out: EC50, potentiation of the action of agonists at the GABAA receptor
Description: Rat hippocampal slices were prepared as follows: Male Wistar rats (100-125 g) were anesthetized with isoflurane and decapitated, the brains quickly removed, collected, blocked, and cut using a vibratome (OTS-4000, Electron Microscope Sciences) into 400 micron (μm) transverse sections. Slices were transferred to a warmed (33° C.), submerged tissue-recording chamber perfused at 2.5-3 ml/min with modified artificial cerebrospinal fluid (120 mM sodium chloride, 3.5 mM, potassium chloride, 2.5 mM calcium chloride, 1.3 mM magnesium chloride, 1.25 mM sodium phosphate, 26 mM sodium carbonate, 10 mM glucose, saturated with 95% oxygen, pH 7.4). […]
Electrophysiology testing was accomplished as follows: A glass rod electrode (1-2 μM tip diameter) was filled with 3M sodium chloride (NaCl) and placed in the CA1 pyramidal cell layer of hippocampal slices. […] Population responses of the CA1 pyramidal cells were recorded with an Axoprobe-1A (Axon Instruments, Molecular Devices, Sunnyvale, Calif.). pCLAMP 8.2 (Axon Instruments) was used for acquiring the data, and Clampfit (Axon Instruments) was used for analysis. […] Peak to peak amplitude of the population response from each stimulus was measured as an indicator of cell excitability. […]
Data were acquired and analyzed using Clampfit and Excel (Microsoft), and reported as mean and individual values.

[1] = target: T1, phosphodiesterase 2 (PDE2) (Homo sapiens, UniProt O00408); experiment: Cerep Diversity Profile: enzymes, PDE2; format: biochemical; conditions: tested at 10 μM; read-out: inhibition of control binding, PDE2
T1 construct: Cerep, Inc

[2] = Pharmacokinetic study in domestic pigs, IV infusion; format: in vivo, pig
[3] = Anesthetic effects in rats, bolus IV, Loss of Righting Reflex (LORR); format: in vivo, rat; conditions: male, Sprague-Dawley, rat, in vivo; bolus IV, rats; read-out: MTD (maximum tolerated dose)
Description: (§1) Also measured was minimum dose to achieve LORR and maximum tolerated dose (MTD).
(§2) The ranges of doses studied were 1.9, 2.3, 3.0, 7.0, 13.7, 14.0 and 15.2 mg/kg for Compound 1 and 3.5, 4.0, 7.0 and 14.0 mg/kg for […].

male Sprague-Dawley rats = experiment: as above; format: in vivo, rat; conditions: rats
Description: as §1, §2

rats = experiment: Separate rat study, bolus IV, 1% in cremaphor, sleep time; format: in vivo; conditions: 7 mg/kg bolus IV, rats
Beagle dogs = experiment: Hemodynamic effects (blood pressure) in beagle dogs, bolus IV; format: in vivo, dog; conditions: 4 min after administration
Description: The study was a crossover design. […] The MTD was defined as the dose that reduced mean arterial blood pressure (MAP) by 50% or to less than 50 millimeters of mercury (mmHg or mm Hg). All animals received supplemental oxygen and, if needed, ventilatory support after 4 min of apnea.
Hemodynamic data, such as mean arterial pressure (MAP), were recorded at baseline, 1, 2, 4, 8, 15, 20 and 30 min. Compound 1 was administered at 5, 10, 15 and 30 mg/kg to 3, 6, 6 and 3 dogs respectively. […] Data were analyzed with a 2-way ANOVA followed by t-test with Bonferroni correction for multiple comparisons.

pigs [4] = experiment: in vivo; conditions: 384 μg per kg per min, pigs
Description: Experiments were performed on commercial farm-bred swine of either sex (mean weight 33.6 kg). Anesthesia was induced with isoflurane. Intravascular access was obtained from an ear vein. Each pig was intubated and mechanically ventilated. Tissue oxygenation was monitored using continuous pulse oximetry placed on the tongue. Ventilation was monitored using an inspired/expired gas analyzer that measured oxygen, carbon dioxide, and potent inhalation agent concentrations. Ventilator settings were adjusted as needed to maintain steady state.
ECG was monitored throughout the study. Arterial blood pressure was monitored through the cannulated left femoral artery. MAP, systolic and diastolic arterial pressures and heart rate were collected every 5 seconds. An internal jugular vein was cannulated with a pulmonary artery catheter for thermodilution estimates of cardiac output and blood temperature. Body temperature was maintained at 37° C. Instrumentation for EEG monitoring was accomplished using an adhesive electrode array over the fronto-occipital regions (Aspect Medical. Norwood, Mass., USA).
Metabolic and hemodynamic parameters for each group were compared at multiple time points using an unpaired two-tailed Student t test. To account for multiple comparisons and maintain the probability of a type I error below 0.05, P values less than 0.025 were considered significant.

pigs [5] = experiment: Hemodynamic effects, arterial blood gas and serum chemistry in pigs, IV infusion; format: in vivo, pig; parameters: ABEc (acid base excess, corrected) / Glucose / Lactate: unit not given here; conditions: for ABEc (acid base excess, corrected) / Glucose / Lactate / Potassium / pC02 / pH / pO2: arterial blood, 0.384 mg/kg/min x 20 min IV
Description: Anesthesia was induced with isoflurane. Intravascular access was obtained from an ear vein. Each pig was intubated and mechanically ventilated.
ECG was monitored throughout the study. […] Body temperature was maintained at 37° C.
Arterial blood gas samples from pigs infused with Compound 1 were taken and analyzed for blood gas and serum chemistry values; mean values are reported in Table 4.

ferrets = experiment: Pro-emetic activity in ferrets; format: in vivo, ferret; conditions: 15 min IV infusion at 1 mg/kg/min, administered alone, 6 ferrets, 45 min
Excerpt: Immediately prior to dosing, food and water were removed.

T1 sequence (O00408 whole entry): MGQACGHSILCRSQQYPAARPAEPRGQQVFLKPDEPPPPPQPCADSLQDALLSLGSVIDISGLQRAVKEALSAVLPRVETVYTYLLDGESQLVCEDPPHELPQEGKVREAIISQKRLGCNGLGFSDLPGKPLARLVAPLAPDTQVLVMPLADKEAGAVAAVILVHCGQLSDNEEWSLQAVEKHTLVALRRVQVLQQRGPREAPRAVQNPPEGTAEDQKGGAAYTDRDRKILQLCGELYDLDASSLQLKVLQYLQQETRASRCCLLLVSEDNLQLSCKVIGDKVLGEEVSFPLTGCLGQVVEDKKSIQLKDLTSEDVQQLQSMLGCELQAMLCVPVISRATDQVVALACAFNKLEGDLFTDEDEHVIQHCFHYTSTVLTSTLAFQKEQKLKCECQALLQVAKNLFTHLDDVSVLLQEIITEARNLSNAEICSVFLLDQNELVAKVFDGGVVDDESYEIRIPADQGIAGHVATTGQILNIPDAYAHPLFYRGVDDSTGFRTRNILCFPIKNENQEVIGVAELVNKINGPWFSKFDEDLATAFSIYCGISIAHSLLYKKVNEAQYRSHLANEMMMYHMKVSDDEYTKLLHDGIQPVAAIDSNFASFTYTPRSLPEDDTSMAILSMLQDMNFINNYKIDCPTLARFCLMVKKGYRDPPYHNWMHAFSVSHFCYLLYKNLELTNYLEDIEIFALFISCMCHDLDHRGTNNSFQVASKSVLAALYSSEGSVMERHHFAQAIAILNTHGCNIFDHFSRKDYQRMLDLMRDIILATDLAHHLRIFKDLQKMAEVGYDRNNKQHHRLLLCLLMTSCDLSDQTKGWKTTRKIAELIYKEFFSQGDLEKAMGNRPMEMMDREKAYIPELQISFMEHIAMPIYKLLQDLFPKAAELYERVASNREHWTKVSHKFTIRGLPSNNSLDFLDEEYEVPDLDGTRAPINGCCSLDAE

In the case of `CC[C@@H](C)c1cccc([C@H](C)CC)c1O` [Compound 1], the EC50 (GABAA receptor) is reported as 2.5 µM, the inhibition at 10 µM [1] is reported as > 20% and the Clearance ([2]; pig, IV infusion) is reported as “exceeded estimated hepatic blood flow”. The metabolic pathway ([2]; pigs) was “glucuronidation in the 1-position with the 4-position being subject to hydroxylation followed by glucuronide and sulfate conjugation”, the MTD [3] was 14 mg/kg and the deaths (male Sprague-Dawley rats; 15.2 mg/kg bolus IV) was “Two rats died”. The “HD50 (dose required to cause 50% of the rats to lose righting reflex)” value (male Sprague-Dawley rats; bolus IV) was 2.1 mg/kg, the “HD7min (dose required to produce 7 minutes of anesthesia)” value (male Sprague-Dawley rats; bolus IV) was 2.3 mg/kg and the “TI (therapeutic index, ratio of MTD to HD7 min)” value (male Sprague-Dawley rats; bolus IV) was 6.1. The “Sleep Time (duration of anesthesia)” value (rats) was 23 min, the “MAP % change from baseline” value (Beagle dogs; 10 mg/kg bolus IV) was “+11%” and the “MAP % change from baseline” value (Beagle dogs; 15 mg/kg bolus IV) was −25%. For the same compound, the “MAP % change from baseline” value (Beagle dogs; 30 mg/kg bolus IV) was −41%, the “IV infusion time producing maximal suppression of BIS” value (pigs [4]) was 14.7 ± 3.8 min and the “metabolic alterations such as metabolic acidosis or increased lactate” value (pigs [5]; IV infusion, pigs) was “did not produce any significant metabolic alterations”. The “reduction of cardiac output compared to propofol” value (pigs [5]; IV infusion, pigs) was “no significant difference”, the “lowest HR measured” value (pigs [5]; IV infusion, pigs (Compound 1 0.384, propofol 0.750 mg/kg/min)) was 129±6 bpm and the “MAP (mean arterial pressure)” value (pigs [5]; IV infusion, pigs (Compound 1 0.384, propofol 0.750 mg/kg/min), FIG. 1 in mm Hg) was 106±3. For the same compound, the “ABEc (acid base excess, corrected)” value (pigs [5]; pigs, Min 0) was 5.6, the Glucose (pigs [5]; pigs, Min 0) was 99.6 and the Lactate (pigs [5]; pigs, Min 0) was 1.43. For the same compound, the Potassium (pigs [5]; pigs, Min 0) was 3.80, the pC02 (pigs [5]; pigs, Min 0) was 38.8 and the pH (pigs [5]; pigs, Min 0) was 7.4861. The pO2 (pigs [5]; pigs, Min 0) was 390, the “ABEc (acid base excess, corrected)” value (pigs [5]; pigs, Min 4) was 5.8 and the Glucose (pigs [5]; pigs, Min 4) was 102.9. The Lactate (pigs [5]; pigs, Min 4) was 1.24, the Potassium (pigs [5]; pigs, Min 4) was 3.71 and the pC02 (pigs [5]; pigs, Min 4) was 37.2. For the same compound, the pH (pigs [5]; pigs, Min 4) was 7.5027, the pO2 (pigs [5]; pigs, Min 4) was 410 and the “ABEc (acid base excess, corrected)” value (pigs [5]; pigs, Min 20) was 5.7. The Glucose (pigs [5]; pigs, Min 20) was 102.0, the Lactate (pigs [5]; pigs, Min 20) was 1.20 and the Potassium (pigs [5]; pigs, Min 20) was 3.84. The pC02 (pigs [5]; pigs, Min 20) was 36.8, the pH (pigs [5]; pigs, Min 20) was 7.5066 and the pO2 (pigs [5]; pigs, Min 20) was 419. For the same compound, the “ABEc (acid base excess, corrected)” value (pigs [5]; pigs, Min 80) was 5.4, the Glucose (pigs [5]; pigs, Min 80) was 99.7 and the Lactate (pigs [5]; pigs, Min 80) was 1.01. It also gave a Potassium (pigs [5]; pigs, Min 80) of 4.00, a pC02 (pigs [5]; pigs, Min 80) of 37.5 and a pH (pigs [5]; pigs, Min 80) of 7.4943. The pO2 (pigs [5]; pigs, Min 80) was 402, the “ABEc (acid base excess, corrected)” value (pigs [5]; pigs, Min 140) was 4.1 and the Glucose (pigs [5]; pigs, Min 140) was 100.7. For the same compound, the Lactate (pigs [5]; pigs, Min 140) was 0.95, the Potassium (pigs [5]; pigs, Min 140) was 4.10 and the pC02 (pigs [5]; pigs, Min 140) was 37.2. For the same compound, the pH (pigs [5]; pigs, Min 140) was 7.4803, the pO2 (pigs [5]; pigs, Min 140) was 399 and the “ABEc (acid base excess, corrected)” value (pigs [5]; pigs, Min 200) was 3.2. The Glucose (pigs [5]; pigs, Min 200) was 102.4, the Lactate (pigs [5]; pigs, Min 200) was 0.96 and the Potassium (pigs [5]; pigs, Min 200) was 4.06. For the same compound, the pC02 (pigs [5]; pigs, Min 200) was 37.6, the pH (pigs [5]; pigs, Min 200) was 7.4641 and the pO2 (pigs [5]; pigs, Min 200) was 356. The “episodes of vomiting or retching” value (ferrets) was “did not produce any episodes of vomiting or retching”.

— US8871815B2, “Therapeutic compounds” (Signature Therapeutics, Inc., priority 2007, dated 2014)
